Species on record: Rattus norvegicus
Assay: Open TG-GATES - Regimen: Single
Assay type: toxicity, organism-based, Sprague-Dawley
Design: regimen Single, gender Male, age 6 weeks
Details: in vivo, po, 300 mg/kg, route gavage, dose level Low; for APTT / Bas / Eos / Fbg / Hb / Ht / Lym / MCH / MCHC / MCV / Mono / Neu / PT / Plat / RBC / Ret / WBC: tissue Blood; for KIDNEY_L / KIDNEY_R / KIDNEY_TOTAL: tissue Kidney; for LIVER: tissue Liver; for A/G / ALP / ALT / AST / BUN / CRE / Ca / Cl / DBIL / GLC / IP / K / LDH / Na / PL / RALB / TBIL / TC / TG / TP / gamma-GTP: tissue Plasma

CCN1CCCC1CNC(=O)c1cc(S(N)(=O)=O)ccc1OC (configuration not stated) [SULPIRIDE]
TERMINAL_BW (3 h): 202.3 g | APTT (3 h): 16.9 s | Bas (3 h): 0% | Eos (3 h): 0.8% | Fbg (3 h): 268.2 mg/dL | Hb (3 h): 12.9 g/dL | Ht (3 h): 40.1% | Lym (3 h): 83% | MCH (3 h): 20.5 pg | MCHC (3 h): 32.3% | MCV (3 h): 63.3 fL | Mono (3 h): 2.6% | Neu (3 h): 12.6% | PT (3 h): 13.5 s | Plat (3 h): 123.5 x10_4/uL | RBC (3 h): 633 x10_4/ul | Ret (3 h): 8.1% | WBC (3 h): 80.2 x10_2/uL | KIDNEY_L (3 h): 0.9 g | KIDNEY_R (3 h): 0.9 g | KIDNEY_TOTAL (3 h): 1.9 g | LIVER (3 h): 9.4 g | A/G (3 h): 0.9 | ALP (3 h): 1455.4 IU/L | ALT (3 h): 35.6 IU/L | AST (3 h): 72.8 IU/L | BUN (3 h): 9.8 mg/dL | CRE (3 h): 0.2 mg/dL | Ca (3 h): 11.1 mg/dL | Cl (3 h): 105.8 meq/L | DBIL (3 h): 0.004 mg/dL | GLC (3 h): 173 mg/dL | IP (3 h): 8.2 mg/dL | K (3 h): 4.2 meq/L | LDH (3 h): 124.4 IU/L | Na (3 h): 141.6 meq/L | PL (3 h): 143.4 mg/dL | RALB (3 h): 2.5 g/dL | TBIL (3 h): 0.062 mg/dL | TC (3 h): 77.8 mg/dL | TG (3 h): 74.2 mg/dL | TP (3 h): 5.2 g/dL | gamma-GTP (3 h): 1.6 IU/L | TERMINAL_BW (6 h): 199.9 g | APTT (6 h): 16.7 s | Bas (6 h): 0% | Eos (6 h): 1% | Fbg (6 h): 287.4 mg/dL | Hb (6 h): 13.1 g/dL | Ht (6 h): 41.1% | Lym (6 h): 78% | MCH (6 h): 20.5 pg | MCHC (6 h): 31.9% | MCV (6 h): 64.2 fL | Mono (6 h): 2.8% | Neu (6 h): 17.4% | PT (6 h): 13.5 s | Plat (6 h): 122.9 x10_4/uL | RBC (6 h): 641.2 x10_4/ul | Ret (6 h): 8.4% | WBC (6 h): 95.5 x10_2/uL | KIDNEY_L (6 h): 0.9 g | KIDNEY_R (6 h): 0.9 g | KIDNEY_TOTAL (6 h): 1.8 g | LIVER (6 h): 8.9 g | A/G (6 h): 0.9 | ALP (6 h): 1332.4 IU/L | ALT (6 h): 36.4 IU/L | AST (6 h): 68.4 IU/L | BUN (6 h): 9.6 mg/dL | CRE (6 h): 0.2 mg/dL | Ca (6 h): 11 mg/dL | Cl (6 h): 104.8 meq/L | DBIL (6 h): 0.01 mg/dL | GLC (6 h): 179.4 mg/dL | IP (6 h): 9.4 mg/dL | K (6 h): 4.3 meq/L | LDH (6 h): 125.8 IU/L | Na (6 h): 141.2 meq/L | PL (6 h): 137.6 mg/dL | RALB (6 h): 2.5 g/dL | TBIL (6 h): 0.074 mg/dL | TC (6 h): 75.4 mg/dL | TG (6 h): 59 mg/dL | TP (6 h): 5.2 g/dL | gamma-GTP (6 h): 1.2 IU/L | TERMINAL_BW (9 h): 198.2 g | APTT (9 h): 16.3 s | Bas (9 h): 0.2% | Eos (9 h): 0.8% | Fbg (9 h): 287.2 mg/dL | Hb (9 h): 13.3 g/dL | Ht (9 h): 41% | Lym (9 h): 77.4% | MCH (9 h): 20.6 pg | MCHC (9 h): 32.3% | MCV (9 h): 63.7 fL | Mono (9 h): 2.4% | Neu (9 h): 19% | PT (9 h): 13.4 s | Plat (9 h): 129.5 x10_4/uL | RBC (9 h): 644.4 x10_4/ul | Ret (9 h): 7.6% | WBC (9 h): 83.6 x10_2/uL | KIDNEY_L (9 h): 0.9 g | KIDNEY_R (9 h): 0.9 g | KIDNEY_TOTAL (9 h): 1.8 g | LIVER (9 h): 7.7 g | A/G (9 h): 0.9 | ALP (9 h): 1287.4 IU/L | ALT (9 h): 34.4 IU/L | AST (9 h): 70.4 IU/L | BUN (9 h): 7.4 mg/dL | CRE (9 h): 0.1 mg/dL | Ca (9 h): 10.4 mg/dL | Cl (9 h): 106.8 meq/L | DBIL (9 h): 0 mg/dL | GLC (9 h): 168.4 mg/dL | IP (9 h): 9.9 mg/dL | K (9 h): 3.7 meq/L | LDH (9 h): 116.4 IU/L | Na (9 h): 142.6 meq/L | PL (9 h): 118.4 mg/dL | RALB (9 h): 2.5 g/dL | TBIL (9 h): 0.07 mg/dL | TC (9 h): 70 mg/dL | TG (9 h): 29.8 mg/dL | TP (9 h): 5.2 g/dL | gamma-GTP (9 h): 1.2 IU/L | TERMINAL_BW (24 h): 215.3 g | APTT (24 h): 17.5 s | Bas (24 h): 0.2% | Eos (24 h): 1% | Fbg (24 h): 305 mg/dL | Hb (24 h): 13.5 g/dL | Ht (24 h): 41.4% | Lym (24 h): 78% | MCH (24 h): 20.9 pg | MCHC (24 h): 32.6% | MCV (24 h): 64.1 fL | Mono (24 h): 2.6% | Neu (24 h): 17.4% | PT (24 h): 12.7 s | Plat (24 h): 130.7 x10_4/uL | RBC (24 h): 646 x10_4/ul | Ret (24 h): 7% | WBC (24 h): 93.3 x10_2/uL | KIDNEY_L (24 h): 0.9 g | KIDNEY_R (24 h): 0.9 g | KIDNEY_TOTAL (24 h): 1.8 g | LIVER (24 h): 9.9 g | A/G (24 h): 0.9 | ALP (24 h): 1728.6 IU/L | ALT (24 h): 44.2 IU/L | AST (24 h): 66.4 IU/L | BUN (24 h): 14.8 mg/dL | CRE (24 h): 0.2 mg/dL | Ca (24 h): 11.1 mg/dL | Cl (24 h): 106.4 meq/L | DBIL (24 h): 0.014 mg/dL | GLC (24 h): 180.4 mg/dL | IP (24 h): 7.4 mg/dL | K (24 h): 4.4 meq/L | LDH (24 h): 179.2 IU/L | Na (24 h): 141.6 meq/L | PL (24 h): 156.2 mg/dL | RALB (24 h): 2.7 g/dL | TBIL (24 h): 0.064 mg/dL | TC (24 h): 79.2 mg/dL | TG (24 h): 134.4 mg/dL | TP (24 h): 5.7 g/dL | gamma-GTP (24 h): 1 IU/L
